Numbered stars: 1 amine (or outer) side, 2 acyl side, 3 side chain; on linkers, the order of the positions; unused ones are H or OH. Bridge positions count the residues as written; N and C are the ends. Square brackets hold non-standard residues; d marks the D form. Peptide text beside a SMILES is read from it. * marks the point of attachment. Trp(5-F) = N[C@@H](Cc1c[nH]c2ccc(F)cc12)C(=O)O; Nle(6-COOH) = N[C@@H](CCCCC(=O)O)C(=O)O; X1 = O=C(CCSCc1cccc(CSCCN[*:1])c1)[*:2]; mXylylene = c1cc(C[*:1])cc(C[*:2])c1; Asu = N[C@@H](CCCCCC(=O)O)C(=O)O; PEG4 = NCCOCCOCCOCCOCCC(=O)O; αMeP = C[C@@]1(C(=O)O)CCCN1; Orn = NCCC[C@H](N)C(=O)O; X2 = COCCOCCOCCOCCC(=O)*; Nva = CCC[C@H](N)C(=O)O; Mpa = O=C(O)CCS
Assays:
[1] = Half life in C57BL/6 mouse whole blood at 100 uM by LC-MS/MS analysis; format: ADME, tissue-based
[2] = target: Chymotrypsin-like elastase family member 1 (Sus scrofa, UniProt P00772); assay: Enzymatic stability assessed as porcine type 4 pancreatic elastase-mediated compound hydrolysis by measuring parent compound remaining at 100 uM incubated for 1 hr by LC-MS/MS analysis; format: ADME; conditions: pig, read-out: Stabilty
[3] = Enzymatic stability assessed as porcine pepsin-mediated compound hydrolysis by measuring parent compound remaining at 100 uM incubated for 1 hr by LC-MS/MS analysis; format: ADME, Sus scrofa; conditions: pig, read-out: Stabilty
[4] = Cytotoxicity against Wistar rat isolated peritoneal cells assessed as reduction in cell viability up to 60 uM measured after 30 mins; format: cell-based; conditions: peritoneal macrophage cell, 0.5 h
[5] = target: Chymotrypsinogen A (Bos taurus, UniProt P00766); assay: Enzymatic stability assessed as bovine pancreatic alpha-chymotrypsin-mediated compound hydrolysis by measuring parent compound remaining at 100 uM incubated for 1 hr by LC-MS/MS analysis; format: ADME; conditions: cattle, read-out: Stabilty
[6] = target: Proprotein convertase subtilisin/kexin type 9 (Homo sapiens, UniProt Q8NBP7); assay: Inhibition of AlexaFluor647-tagged cyclic peptide binding to avi-tagged-biotinylated human PCSK9 measured after 2 hrs by Lance Streptavidin Europium based FRET assay
[7] = Enzymatic stability assessed as bovine pancreatic trypsin-mediated compound hydrolysis by measuring parent compound remaining at 100 uM incubated for 1 hr by LC-MS/MS analysis; format: ADME, Bos taurus; conditions: cattle, read-out: Stabilty
[8] = Induction of mast cell degranulation in Wistar rat isolated peritoneal cells assessed as effect on histamine release measured after 30 mins; format: tissue-based
[9] = target: PCSK9/LDLR (Homo sapiens, UniProt Q8NBP7); assay: Inhibition of avi-tagged-biotinylated human PCSK9 interaction with His-tagged human LDLR EGFa domain by LANCE Ulight Streptavidin based TR-FRET assay; format: protein assay
[10] = Rattus norvegicus, Wistar, Mast cell, 0.5 h, read-out: EC50

Sequence of Chymotrypsin-like elastase family member 1 (P00772 whole entry): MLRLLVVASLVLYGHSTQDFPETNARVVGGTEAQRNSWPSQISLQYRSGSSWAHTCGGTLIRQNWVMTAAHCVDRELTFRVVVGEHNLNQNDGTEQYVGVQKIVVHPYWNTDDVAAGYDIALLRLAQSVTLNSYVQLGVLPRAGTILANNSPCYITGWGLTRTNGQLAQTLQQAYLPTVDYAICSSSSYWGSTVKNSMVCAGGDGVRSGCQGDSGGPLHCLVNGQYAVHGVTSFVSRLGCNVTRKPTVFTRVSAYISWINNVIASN
Sequence of PCSK9/LDLR (Q8NBP7 31-152 limits assumed): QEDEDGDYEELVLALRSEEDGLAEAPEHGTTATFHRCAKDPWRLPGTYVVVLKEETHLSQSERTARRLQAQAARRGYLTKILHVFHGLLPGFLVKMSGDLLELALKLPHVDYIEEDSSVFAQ
Sequence of PCSK9/LDLR (Q8NBP7 153-692 limits assumed): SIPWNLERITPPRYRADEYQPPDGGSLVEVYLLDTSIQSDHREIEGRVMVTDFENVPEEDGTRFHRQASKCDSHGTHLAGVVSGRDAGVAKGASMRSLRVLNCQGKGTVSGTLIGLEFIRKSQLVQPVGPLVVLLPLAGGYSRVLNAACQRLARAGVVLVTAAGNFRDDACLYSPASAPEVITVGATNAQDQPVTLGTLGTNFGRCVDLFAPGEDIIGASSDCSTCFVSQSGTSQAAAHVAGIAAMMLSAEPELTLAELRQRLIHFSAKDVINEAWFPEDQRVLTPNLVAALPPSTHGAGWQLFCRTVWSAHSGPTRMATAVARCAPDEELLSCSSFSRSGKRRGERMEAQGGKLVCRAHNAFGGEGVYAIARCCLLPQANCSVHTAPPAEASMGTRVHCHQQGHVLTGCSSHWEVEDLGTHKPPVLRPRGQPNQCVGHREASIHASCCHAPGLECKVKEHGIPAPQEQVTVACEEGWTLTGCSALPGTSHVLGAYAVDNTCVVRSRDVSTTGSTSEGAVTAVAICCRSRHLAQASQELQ
Sequence of PCSK9/LDLR (P01130 22-860 partner limits assumed): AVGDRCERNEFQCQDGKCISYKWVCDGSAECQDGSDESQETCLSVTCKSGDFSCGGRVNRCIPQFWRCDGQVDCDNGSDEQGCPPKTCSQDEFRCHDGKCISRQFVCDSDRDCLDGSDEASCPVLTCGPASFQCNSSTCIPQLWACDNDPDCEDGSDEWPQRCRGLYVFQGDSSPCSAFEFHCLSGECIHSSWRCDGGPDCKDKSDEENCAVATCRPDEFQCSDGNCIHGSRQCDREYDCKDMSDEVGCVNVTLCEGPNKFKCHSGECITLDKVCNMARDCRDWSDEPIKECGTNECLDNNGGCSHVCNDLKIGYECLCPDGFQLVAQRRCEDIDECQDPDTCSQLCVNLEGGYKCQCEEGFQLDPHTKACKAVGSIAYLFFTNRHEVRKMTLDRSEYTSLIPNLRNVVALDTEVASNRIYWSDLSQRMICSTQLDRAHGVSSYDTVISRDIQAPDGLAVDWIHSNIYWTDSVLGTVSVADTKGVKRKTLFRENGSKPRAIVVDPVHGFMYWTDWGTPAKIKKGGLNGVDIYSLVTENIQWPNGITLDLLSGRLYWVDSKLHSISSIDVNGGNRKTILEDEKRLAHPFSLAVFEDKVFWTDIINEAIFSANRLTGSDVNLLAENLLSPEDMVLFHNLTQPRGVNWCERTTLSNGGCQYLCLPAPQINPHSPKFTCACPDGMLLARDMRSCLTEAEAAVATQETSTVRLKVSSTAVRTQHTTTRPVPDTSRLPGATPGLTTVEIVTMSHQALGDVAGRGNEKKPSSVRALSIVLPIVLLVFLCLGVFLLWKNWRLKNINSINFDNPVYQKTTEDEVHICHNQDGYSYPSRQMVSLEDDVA
Sequence of Proprotein convertase subtilisin/kexin type 9 (Q8NBP7 31-152 limits assumed): as the sequence (Q8NBP7 31-152 limits assumed) above
Sequence of Proprotein convertase subtilisin/kexin type 9 (Q8NBP7 153-692 limits assumed): as the sequence (Q8NBP7 153-692 limits assumed) above

SMILES	Ki [6]	Ki [9]	Activity [4]	EC50 ([8]; mast cell)	also measured
C[C@@]12CCCN1C(=O)[C@H](Cc1ccc(O)cc1)NC(=O)[C@H](Cc1cnc[nH]1)NC(=O)[C@H](CC(=O)O)NC(=O)[C@H](Cc1c[nH]c3ccc(F)cc13)NC(=O)[C@H](Cc1c[nH]c3ccc(F)cc13)NC(=O)CNC(=O)[C@H](CCCCNC(=O)CCOCCOCCOCCOCCN)NC(=O)CCSCc1cccc(c1)CSC[C@@H](C(N)=O)NC2=O ([Mpa]K(PEG4)G[Trp(5-F)][Trp(5-F)]DHY[αMeP]C-NH2; linker 1-10 via mXylylene)	0.0107 µM		Non-Toxic	Non-Toxic	
COc1ccc(C[C@@H]2NC(=O)[C@H](Cc3cnc[nH]3)NC(=O)[C@H](CC(=O)O)NC(=O)[C@H](Cc3c[nH]c4ccc(F)cc34)NC(=O)[C@H](Cc3c[nH]c4ccc(F)cc34)NC(=O)[C@@H](C)NC(=O)[C@H](CCCCN(C)C)NC(=O)CCSCc3cccc(c3)CSCCNC(=O)[C@]3(C)CCCN3C2=O)cc1	0.0042 µM		Non-Toxic		EC50 [8, 10]: 10 µM
C[C@@]12CCCN1C(=O)[C@H](Cc1ccc(O)cc1)NC(=O)[C@H](Cc1cnc[nH]1)NC(=O)[C@H](CC(=O)O)NC(=O)[C@H](Cc1c[nH]c3ccc(F)cc13)NC(=O)[C@H](Cc1c[nH]c3ccc(F)cc13)NC(=O)CNC(=O)[C@H](CCCCN)NC(=O)CCSCc1cccc(c1)CSCCNC2=O (cyclo(DHY[αMeP][X1]KG[Trp(5-F)][Trp(5-F)]))	0.0043 µM	0.0266 µM			half-life at 100 µM [1]: 5.56 h; remaining at 1 h, 100 µM [2]: 46.1%; remaining at 1 h, 100 µM [3]: 99.1%; remaining at 1 h, 100 µM [5]: 7.4%; remaining at 1 h, 100 µM [7]: 0.8%
CCC[C@@H]1NC(=O)CCSCc2cccc(c2)CSC[C@@H](C(N)=O)NC(=O)[C@]2(C)CCCN2C(=O)[C@H](Cc2ccc(O)cc2)NC(=O)[C@H](Cc2cnc[nH]2)NC(=O)[C@H](CC(=O)O)NC(=O)[C@H](Cc2c[nH]c3ccc(F)cc23)NC(=O)[C@H](Cc2c[nH]c3ccc(F)cc23)NC(=O)CNC1=O ([Mpa][Nva]G[Trp(5-F)][Trp(5-F)]DHY[αMeP]C-NH2; linker 1-10 via mXylylene)	0.0352 µM	0.0947 µM	Non-Toxic		EC50 [8, 10]: 7 µM
COc1ccc(C[C@@H]2NC(=O)[C@H](Cc3cnc[nH]3)NC(=O)[C@H](CC(=O)O)NC(=O)[C@H](Cc3c[nH]c4ccc(F)cc34)NC(=O)[C@H](Cc3c[nH]c4ccc(F)cc34)NC(=O)[C@@H](C)NC(=O)[C@H](CCCCCC(=O)O)NC(=O)CCSCc3cccc(c3)CSCCNC(=O)[C@]3(C)CCCN3C2=O)cc1 (cyclo([Asu][dA][Trp(5-F)][Trp(5-F)]DHY(Me)[αMeP][X1]))	0.0807 µM		Non-Toxic	Non-Toxic	
C[C@@H](O)[C@@H]1NC(=O)[C@@H]2CCCN2C(=O)[C@H](Cc2c[nH]c3ccc(F)cc23)NC(=O)[C@H](Cc2c[nH]c3ccc(F)cc23)NC(=O)CNC(=O)[C@H](CCCCN)NC(=O)CCSCc2cccc(c2)CSC[C@@H](C(N)=O)NC(=O)[C@]2(C)CCCN2C(=O)[C@H](Cc2ccc(O)cc2)NC1=O ([Mpa]KG[Trp(5-F)][Trp(5-F)]PTY[αMeP]C-NH2; linker 1-10 via mXylylene)	0.0117 µM	0.0239 µM			half-life at 100 µM [1]: > 6 h; remaining at 1 h, 100 µM [2]: 51%; remaining at 1 h, 100 µM [3]: 95%; remaining at 1 h, 100 µM [5]: 91%; remaining at 1 h, 100 µM [7]: 1.9%
C[C@@]12CCCN1C(=O)[C@H](Cc1ccc(O)cc1)NC(=O)[C@H](Cc1cnc[nH]1)NC(=O)[C@H](CC(=O)O)NC(=O)[C@H](Cc1c[nH]c3ccc(F)cc13)NC(=O)[C@H](Cc1c[nH]c3ccc(F)cc13)NC(=O)CNC(=O)[C@H](CCCN)NC(=O)CCSCc1cccc(c1)CSC[C@@H](C(N)=O)NC2=O ([Mpa][Orn]G[Trp(5-F)][Trp(5-F)]DHY[αMeP]C-NH2; linker 1-10 via mXylylene)	0.0143 µM	0.133 µM	Non-Toxic	Non-Toxic	
COc1ccc(C[C@@H]2NC(=O)[C@H](Cc3cnc[nH]3)NC(=O)[C@H](CC(=O)O)NC(=O)[C@H](Cc3c[nH]c4ccc(F)cc34)NC(=O)[C@H](Cc3c[nH]c4ccc(F)cc34)NC(=O)[C@@H](C)NC(=O)[C@H](CCCCC(=O)O)NC(=O)CCSCc3cccc(c3)CSCCNC(=O)[C@]3(C)CCCN3C2=O)cc1 (cyclo(DHY(Me)[αMeP][X1][Nle(6-COOH)][dA][Trp(5-F)][Trp(5-F)]))	0.0858 µM		Non-Toxic	Non-Toxic	
CCC[C@H]1NC(=O)[C@H](CCCCN)NC(=O)CCSCc2cccc(c2)CSCCNC(=O)[C@]2(C)CCCN2C(=O)[C@H](Cc2ccc(O)cc2)NC(=O)[C@H](Cc2cnc[nH]2)NC(=O)[C@H](CC(=O)O)NC(=O)[C@H](Cc2c[nH]c3ccc(F)cc23)NC(=O)[C@H](Cc2c[nH]c3ccc(F)cc23)NC1=O	0.0027 µM	0.0435 µM			
COc1ccc(C[C@@H]2NC(=O)[C@H](Cc3cnc[nH]3)NC(=O)[C@H](CC(=O)O)NC(=O)[C@H](Cc3c[nH]c4ccc(F)cc34)NC(=O)[C@H](Cc3c[nH]c4ccc(F)cc34)NC(=O)[C@@H](C)NC(=O)[C@H](CCCCO)NC(=O)CCSCc3cccc(c3)CSCCNC(=O)[C@]3(C)CCCN3C2=O)cc1	0.039 µM	0.0789 µM	Non-Toxic	Non-Toxic	

More lines, main results first:

Ki [6]	Ki [9]	SMILES	Activity [4]	EC50 ([8]; mast cell)	also measured
0.0094 µM		COCCOCCOCCOCCC(=O)NCCCC[C@@H]1NC(=O)CCSCc2cccc(c2)CSC[C@@H](C(N)=O)NC(=O)[C@]2(C)CCCN2C(=O)[C@H](Cc2ccc(O)cc2)NC(=O)[C@H](Cc2cnc[nH]2)NC(=O)[C@H](CC(=O)O)NC(=O)[C@H](Cc2c[nH]c3ccc(F)cc23)NC(=O)[C@H](Cc2c[nH]c3ccc(F)cc23)NC(=O)CNC1=O ([Mpa]K(X2)G[Trp(5-F)][Trp(5-F)]DHY[αMeP]C-NH2; linker 1-10 via mXylylene)	Non-Toxic	Non-Toxic	half-life at 100 µM [1]: > 6 h; remaining at 1 h, 100 µM [2]: 96.3%; remaining at 1 h, 100 µM [3]: 98.6%; remaining at 1 h, 100 µM [5]: 39.5%; remaining at 1 h, 100 µM [7]: 96%
0.0082 µM		COc1ccc(C[C@@H]2NC(=O)[C@H](Cc3cnc[nH]3)NC(=O)[C@H](CC(=O)O)NC(=O)[C@H](Cc3c[nH]c4ccc(F)cc34)NC(=O)[C@H](Cc3c[nH]c4ccc(F)cc34)NC(=O)[C@@H](C)NC(=O)[C@H](CNC(=O)COCCOCCN)NC(=O)CCSCc3cccc(c3)CSCCNC(=O)[C@]3(C)CCCN3C2=O)cc1	Non-Toxic	Non-Toxic	
	0.202 µM	C[C@H]1NC(=O)[C@H](CCC(=O)O)NC(=O)CCSCc2cccc(c2)CSCCNC(=O)[C@]2(C)CCCN2C(=O)[C@H](Cc2ccc(O)cc2)NC(=O)[C@H](Cc2cnc[nH]2)NC(=O)[C@H](CC(=O)O)NC(=O)[C@H](Cc2c[nH]c3ccc(F)cc23)NC(=O)[C@H](Cc2c[nH]c3ccc(F)cc23)NC1=O	Non-Toxic		EC50 [8, 10]: 1 µM
0.0442 µM		COc1ccc(C[C@@H]2NC(=O)[C@H]([C@@H](C)O)NC(=O)[C@@H]3CCCC(=O)NCc4cccc(c4)C[C@H](NC(=O)[C@@H](C)NC(=O)[C@H](C)NC(=O)CCSCc4cccc(c4)CSCCNC(=O)[C@]4(C)CCCN4C2=O)C(=O)N[C@@H](Cc2c[nH]c4ccc(F)cc24)C(=O)N3)cc1			
0.0028 µM		COc1ccc(C[C@@H]2NC(=O)[C@H]([C@@H](C)OC)NC(=O)[C@@H]3CCC(=O)NCc4cccc(c4)C[C@H](NC(=O)[C@@H](C)NC(=O)[C@H](C)NC(=O)CCSCc4cccc(c4)CSCCNC(=O)[C@]4(C)CCCN4C2=O)C(=O)NC(Cc2ccnc4ccc(F)cc24)C(=O)N3C)cc1 (stereo not given in full)			
0.0042 µM		CC(C)(C)[C@H]1NC(=O)[C@H](CCCCN)NC(=O)CCSCc2cccc(c2)CSCCNC(=O)[C@]2(C)CCCN2C(=O)[C@H](Cc2ccc(O)cc2)NC(=O)[C@H](Cc2cnc[nH]2)NC(=O)[C@H](CC(=O)O)NC(=O)[C@H](Cc2c[nH]c3ccc(F)cc23)NC(=O)[C@H](Cc2c[nH]c3ccc(F)cc23)NC1=O			
0.0039 µM		COc1ccc(C[C@@H]2NC(=O)[C@H](Cc3cnc[nH]3)NC(=O)[C@H](CC(=O)O)NC(=O)[C@H](Cc3c[nH]c4ccc(F)cc34)NC(=O)[C@H](Cc3c[nH]c4ccc(F)cc34)NC(=O)[C@@H](C)NC(=O)[C@H](CCCCN)NC(=O)CCSCc3cccc(c3)CSCCNC(=O)[C@]3(C)CCCN3C2=O)cc1			
	0.392 µM	C[C@@H]1NC(=O)CCSCc2cccc(c2)CSC[C@@H](C(N)=O)NC(=O)[C@@H]2CCCN2C(=O)[C@H](Cc2ccc(O)cc2)NC(=O)[C@H](Cc2cnc[nH]2)NC(=O)[C@H](CC(=O)O)NC(=O)[C@H](Cc2c[nH]c3ccc(F)cc23)NC(=O)[C@H](Cc2c[nH]c3ccc(F)cc23)NC(=O)CNC1=O ([Mpa]AG[Trp(5-F)][Trp(5-F)]DHYPC-NH2; linker 1-10 via mXylylene)			half-life at 100 µM [1]: 1.49 h; remaining at 1 h, 100 µM [2]: 54.9%; remaining at 1 h, 100 µM [3]: 92.5%; remaining at 1 h, 100 µM [5]: 15.5%; remaining at 1 h, 100 µM [7]: 1%
0.285 µM		COc1ccc(C[C@@H]2NC(=O)[C@H]([C@@H](C)O)NC(=O)[C@@H]3CC(=O)NCc4cccc(c4)C[C@H](NC(=O)[C@@H](C)NC(=O)[C@H](C)NC(=O)CCSCc4cccc(c4)CSCCNC(=O)[C@]4(C)CCCN4C2=O)C(=O)N[C@@H](Cc2c[nH]c4ccc(F)cc24)C(=O)N3)cc1			

From ChEMBL document CHEMBL4699634, “Series of Novel and Highly Potent Cyclic Peptide PCSK9 Inhibitors Derived from an mRNA Display Screen and Optimized via Structure-Based Design” (J Med Chem, 2020)
